The values that follow come from patent publication US4056629A, “Pharmacologically active O-acyl-2,3-diaryl-3-halogeno-acryl-aldoximes” (Hoechst Aktiengesellschaft, priority 1975, dated 1977).

For assay [1], the system named is gout-like disturbance of the purine metabolism. As to the kind of experiment: 24-hour test in the oxonate rat (uric acid, urine volume, pH and Na+ after potassium oxonate). To be noted: for Uric acid serum (-x (mg %) ± SD): control 5.41 + 0.66, * statistically significant (U test); for Activity in words (heading of Table 2): Example 14 combined with the increase of diuresis and the excretion of sodium. The class given is in vivo, male Wistar rats. As to the method:
(§1) The uricosuric and hypouricemic effects were observed by way of experiment on the oxonate rat. In this experimental test arrangement the uricase activity of the rat liver was inhibited by the administration of potassium oxonate, thus producing a gout-like disturbance of the purine metabolism. The effect was tested in the following test arrangement:
1. The influence on the gout-like disturbance of the purine metabolism which had been induced by way of experiment was tested in a 24 hour test. In this test arrangement, the animals are given the substances in a 0.5 % potassium-oxonate solution into the stomach by means of an esophagal sound, after water and fodder had been withheld for 18 hours. During the entire test period, the animals are given the 0.5 % potassium-oxonate solution ad libitum. After 8 hours, they are additionally given 5 ml of water per 100 g of body weight into the stomach, by way of an esophagal sound. After 24 hours urine samples were taken, the animals were killed in a narcosis produced by ether, and the blood and urine were analysed for the content of uric acid. In addition, the creatinine concentration, the sodium, potassium and chloride concentration in the urine and serum samples were determined.

Assay [2] has the same test system. As to the kind of experiment: 3-day cycle in the oxonate rat (uric acid in urine on days 1-3 and in serum on day 3). To be noted: for Serum Uric acid conc.: third day, * statistically significant p < 0.05 (Duncan test). The class given is in vivo, white male Wistar rats. As to the method:
as §1
2. The influence on the gout-like metabolism disturbance which had been induced by way of experiment was also examined in a 3-day cycle. For this purpose, the animals (white male Wistar rats) were placed into the metabolism cages 18 hours prior to the start of the experiment. The animals drank water, and they were offered a special fodder mixture to consume ad libitum. The composition of the fodder mixture was as follows: 5 % of fructose, 3% of uric acid, 2 % of potassium oxonate, and 100 mg of synthetic sweetening agent (acesulfame) per 1 kg of body weight. On the first and second days of the experiment, the compositions were administered to the animals, in a 0.5 % potassium-oxanate solution, into the stomach by way of an esophagal sound. The urine samples were examined on the first, second and third days of the experiment, and the serum samples were tested for their uric acid content on the third day of the experiment.
In Table 4 the results following the application of allopurinol (as comparative substance) have been indicated in the above-mentioned experimental scheme.

The mark [3] stands for this setting: Table 2 II, 0.3 mg/kg, control = 100.
The mark [4] stands for this setting: Table 2 II, 3.0 mg/kg, control = 100.
Where [5] appears, read: Table 3, 3 mg/kg, 1st day, oxonate control 3.38.
Where [6] appears, read: Table 3, 3 mg/kg, 1st day, oxonate control 42.5.
Where [7] appears, read: Table 3, 3 mg/kg, 2nd day, oxonate control 3.83.
[8] abbreviates: Table 3, 3 mg/kg, 2nd day, oxonate control 42.9.
Where [9] appears, read: Table 3, 3 mg/kg, 3rd day, oxonate control 5.17.
Where [10] appears, read: Table 3, 3 mg/kg, 3rd day, oxonate control 48.8.
The mark [11] stands for this setting: Table 3, 3 mg/kg, oxonate control 5.49.
[12] abbreviates: Table 2 I, 3 mg/kg, oxonate control group = 100.

Turning to `CCCCCCCCCC(=O)ON=CC(=C(Cl)c1ccc(OC)cc1)c1ccc(OC)cc1` [Example 8, O-caprinoyl-2-(4-methoxyphenyl)-3-chloro-p-methoxy-cinnamic aldoxime], the “Uric acid excretion (-x ± SD)” value in assay [1] (Table 2 II, 0.3 mg/kg, control 2.74 + 1.43) is recorded as 3.25 + 1.68 mg/24 hr./100 g b. wt; in assay [1] (Table 2 II, 3.0 mg/kg, control 2.74 + 1.43), 2.46 + 1.19 mg/24 hr./100 g b. wt. The “Uric acid serum (-x (mg %) ± SD)” value in assay [1] (Table 2 II, 0.3 mg/kg) is reported as 5.00 + 0.54 mg %; in assay [1] (Table 2 II, 3.0 mg/kg) it was 4.81 + 0.74 mg %. For the same compound, the “Uric acid excretion, % control” value stood at 118 % control in assay [1] (setting [3]) and 89 % control in assay [1] (setting [4]). Besides, the “Uric acid serum, % control” value in assay [1] (setting [3]) is reported as 92 % control; in assay [1] (setting [4]), 88 % control. Besides, the “Activity in words (heading of Table 2)” value in assay [1] (oxonate rat) is “uricosuric and hypouricemic activity”.

As for `Oc1ncnc2[nH]ncc12` [Allo, Allopurinol, reference compound], the “Urine Amount of uric acid” value in assay [2] (Table 4, 50 mg/kg, 1st day, oxonate control 0.80) came out at 0.91 mg/24 h; in assay [2] (Table 4, 50 mg/kg, 2nd day, oxonate control 2.6), 2.1 mg/24 h; in assay [2] (Table 4, 50 mg/kg, 3rd day, oxonate control 3.4), 3.8 mg/24 h; in assay [2] (Table 4, 100 mg/kg, 1st day, oxonate control 0.80), 0.9 mg/24 h; in assay [2] (Table 4, 100 mg/kg, 2nd day, oxonate control 2.6), 2.0 mg/24 h; in assay [2] (Table 4, 100 mg/kg, 3rd day, oxonate control 3.4) it was 3.7 mg/24 h. Further, the “Urine Uric acid conc.” value in assay [2] (Table 4, 50 mg/kg, 1st day, oxonate control 11.3) was found to be 11.6 mg %; in assay [2] (Table 4, 50 mg/kg, 2nd day, oxonate control 23.9) it was 18.7 mg %; in assay [2] (Table 4, 50 mg/kg, 3rd day, oxonate control 36.4), 31.6 mg %; in assay [2] (Table 4, 100 mg/kg, 1st day, oxonate control 11.3), 12.7 mg %; in assay [2] (Table 4, 100 mg/kg, 2nd day, oxonate control 23.9), 19.9 mg %; in assay [2] (Table 4, 100 mg/kg, 3rd day, oxonate control 36.4), 28.2 mg %. Besides, the “Serum Uric acid conc.” value in assay [2] (Table 4, 50 mg/kg, oxonate control 6.7) was 6.2 mg %; in assay [2] (Table 4, 100 mg/kg, oxonate control 6.7), 5.2 mg %.

On to `CCCCCCCCCC(=O)ON=CC(=C(Br)c1ccccc1)c1ccccc1` [Example 7, O-caprinoyl-2-phenyl-3-bromo-cinnamic aldoxime], for which the “Urine Amount of uric acid” value was 2.78 mg/24 h in assay [2] (setting [5]), 2.99 mg/24 h in assay [2] (setting [7]) and 2.74 mg/24 h in assay [2] (setting [9]). Moreover, the “Urine Uric acid conc.” value in assay [2] (setting [6]) was 36.4 mg %; in assay [2] (setting [8]), 31.8 mg %; in assay [2] (setting [10]), 31.2 mg %. For the same compound, the “Serum Uric acid conc.” value in assay [2] (setting [11]) is listed as 4.03 mg %.

Take `O=C(Nc1ccccc1)ON=CC(=C(Br)c1ccccc1)c1ccccc1` [Example 14, 2-phenyl-3-bromo-cinnamic aldoxime-O-(N-phenyl)-carbamate]: in assay [1] (Table 2 I, 3 mg/kg, control 0.09 + 0.03), the “Amount of urine Na+” value was 0.11 + 0.02 mg/24 hr/100 g b. wt. Further, the “Amount of urine excreted (-x + SD)” value in assay [1] (Table 2 I, 3 mg/kg, control 7.1 + 2.1) was 9.3 + 3.06 ml/24 hr./100 g b. wt. Besides, the “urine pH” value in assay [1] (Table 2 I, 3 mg/kg, control 7.5 + 0.2, * statistically significant (Scheffe test)) was 7.2 + 0.08. In addition, in assay [1] (setting [12]), the “Amount of urine excreted, % control” value is listed as 130 % control and the “Uric acid excretion, % control” value was determined as 118 % control. In addition, the “Uric acid excretion (-x ± SD)” value in assay [1] (Table 2 I, oxonate rat, 3 mg/kg, into the stomach) was 3.52 ± 1.11 mg/24 hr./100 g b. wt. Also, in assay [1] (oxonate rat), the “Activity in words (heading of Table 2)” value was “uricosuric activity”.

For the compound `CC(=O)ON=CC(=C(Br)c1ccccc1)c1ccccc1` [Example 6, O-acetyl-2-phenyl-3-bromo-cinnamic aldoxime], the “Urine Amount of uric acid” value in assay [2] (setting [5]) is 2.40 mg/24 h; in assay [2] (setting [7]) it was 2.96 mg/24 h; in assay [2] (setting [9]) it was 2.98 mg/24 h. Moreover, the “Urine Uric acid conc.” value in assay [2] (setting [6]) was 33.4 mg %; in assay [2] (setting [8]), 32.8 mg %; in assay [2] (setting [10]), 32.7 mg %. In addition, in assay [2] (setting [11]), the “Serum Uric acid conc.” value is listed as 3.65 mg %.

For the compound `O=C(ON=CC(=C(Br)c1ccccc1)c1ccccc1)c1ccccc1` [Example 5, O-benzoyl-2-phenyl-3-bromo-cinnamic aldoxime], the entries for the “Urine Amount of uric acid” value in assay [2] (setting [5]), in assay [2] (setting [7]) and in assay [2] (setting [9]) were 2.59 mg/24 h, 2.41 mg/24 h and 3.68 mg/24 h, respectively. The results for the “Urine Uric acid conc.” value in assay [2] (setting [6]), in assay [2] (setting [8]) and in assay [2] (setting [10]) were 38.9 mg %, 32.4 mg % and 34.7 mg %, respectively. The “Serum Uric acid conc.” value in assay [2] (setting [11]) stood at 4.07 mg %.
